In brackets after ≈: the same amount, converted by molar mass. Several values for one entry are separate records, joined by “and”; a condition that tells them apart may be missing. Equal values may be shown once.
Legend:
MCF7 cells [1] = test: JC-1 staining, mitochondrial membrane potential in MCF7 cells; assay type: cell-based, human
From the text: (§1) JC-1 staining is an indicator of mitochondrial membrane potential; with this assay, mitochondria within cells stained with this fluorescent dye emit a wavelength in the red spectrum when mitochondrial membrane potential is intact. When mitochondria are depolarized, the wavelength of the spectrum emitted changes to green. Therefore, the ratio of red/green fluorescence will give an indication of the intactness of the membrane potential of mitochondria, and thus mitochondrial function.
MCF7 cells were cultured in 24-well plates at 1×10^4 per well and incubated overnight. Following drug inhibition the medium was removed and 1 μg/ml JC-1 (Molecular Probes) in DPBS was added to the cells. Plates were incubated for 30 min at 37° C., and washed two times with DPBS. Fluorescence from each well was measured at 530 nm/590 nm (excitation/emission) and by 485 nm/535 nm (excitation/emission) separately using PerkinElmer Victor 1420. The ratio of red to green fluorescence is a measure of mitochondrial membrane potential and thus mitochondrial function directly.
Mitochondrial membrane polarization was monitored using the procedure described above. Cells were cultured in 24-well plates at 1×10^4 per well and incubated overnight. […] Fluorescence from each well was measured at 530 nm/590 nm (excitation/emission) and by 485 nm/535 nm (excitation/emission) separately using PerkinElmer Victor 1420.

[2] = test system: Human ovarian cancer cell lines; test: XTT cytotoxicity assay, human ovarian cancer cell lines; assay type: cell-based; details: 2 human ovarian cancer cell lines, read-out: LC50 (the source's name)
Method: (§2) Cytotoxicity can be easily measured using XTT assays, which provide an indication of mitochondrial activity. The XTT assay is a non-radioactive alternative for the [^51Cr] release cytotoxicity assay. XTT is a tetrazolium salt that is reduced to a formazan dye only by metabolically active, viable cells. The reduction of XTT is measured spectrophotometrically as OD490-OD650. Thus, cells that are actively metabolizing will form reaction product when subjected to XTT measurement.
(§3) For this experiment, cells were cultured under standard culture conditions. MCF7 human breast cancer cells were cultured in DMEM containing 5 mM glucose medium with 10% fetal calf serum, 0.01 mg/ml insulin and 1% penicillin/streptomycin. To measure the cytotoxicity of specific compounds against cancer cells, 9×10^3 MCF7 cells were plated per well in 96-well plates. Following overnight culture, the compounds, dissolved in DMSO, were added to the wells in 1 μl volume at specified concentrations. Vehicle controls were run for each experiment. Each condition was run in triplicate. […] Plates were read at OD490 on a PerkinElmer Victor 1420. […]
(§4) Using the XTT assay, LC50 values for C31 were determined for numerous human cancer cell lines and human hepatocytes, as shown in the following table: […]

MCF7 cells [3] = test: 14C-acetate incorporation into lipids in MCF7 cells; assay type: cell-based, human; details: for IC50: Homo sapiens, MCF7 cells
Method: (§5) MCF7 human breast cancer cells (a cell line which overexpresses FAS) were cultured in DMEM containing 5 mM glucose medium with 10% fetal calf serum, 0.01 mg/ml insulin and 1% penicillin/streptomycin. For measurement of fatty acid synthesis cells were cultured in 24-well plates at 5×10^4 per well and incubated overnight. Fatty acid synthesis was assayed by a 2 h pulse of [U^14C]acetate, 1 μCi/well, followed by Folch extraction and scintillation counting. Test compounds were added with the addition of drugs as described. Controls were treated with DMSO alone.
as §5, with “cells” for “cells (a cell line which overexpresses FAS)”, “containing 1 mM or” for “containing”, “glucose in the” for “glucose”, “penicillin/streptomycin. The cells were grown in two oxygen conditions, normoxia (21% 02) or hypoxia (1% 02).” for “penicillin/streptomycin.”, “counting” for “counting. Test compounds were added”

[4] = test system: SKOV3 human ovarian cancer cells; test: JC-1 staining, mitochondrial membrane potential in SKOV3 cells; assay type: cell-based; details: SKOV3, drug in DMSO applied 30 min prior to staining
From the text: as §1
The left panels show granular red-staining indicating mitochondria with intact membrane potential is brightest in control, and decreases with increasing concentrations of C31. Conversely, the right panels show the diffuse cytoplasmic green-staining which indicates mitochondrial depolarization, is dimmest in control and brightest at the highest concentration of C31 tested. Drug was solubilized in DMSO and applied for 30 min prior to staining.

Human hepatoma cell line = test: XTT cytotoxicity assay, human hepatoma cell line; assay type: cell-based; details: 1 human hepatoma cell line, read-out: LC50 (the source's name)
Method: as §2, §3, §4

[5] = alamarBlue assay, primary human hepatocytes; assay type: cell-based; details: read-out: LC50 (the source's name)
[6] = test system: HCT116 human colon cancer xenograft; test: tumor xenograft size, HCT116; assay type: in vivo, Athymic Nude mice; details: 50 mg/kg
Method: Xenograft studies were performed using various mmFAS inhibitors disclosed herein. Human cancer xenograft studies are known in the art. (See Pizer et al., Cancer Res. 56:1189-1193, 1996; Pizer et al., Cancer Res. 60: 213-218, 2000; Testa et al., Oncogene 24: 7455-7464, 2005).
In particular, C31 mouse efficacy studies were conducted in order to evaluate anti-neoplastic activity of C31 in vivo. Athymic Nude mice were implanted with HCT116 human colon, SKOV3 human ovarian or OVCAR3 human ovarian cancer cell lines and were treated when the grown tumor xenografts reached at least 150 to 200 mm^3.^1 ^1 Compounds were solubilized in TEP (80% polyethylene glycol (PEG) 400, 10% ethanol, 10% tween-80) in a volume of 50 μL.

[7] = test system: Human colon cancer cell line; test: XTT cytotoxicity assay, human colon cancer cell line; assay type: cell-based; details: 1 human colon cancer cell line, read-out: LC50 (the source's name)
Method: as §2, §3, §4

With `CCCCCCCCC1(C)SC(=O)C=C1OCC(=O)Nc1ccc(Cl)cc1` (stereo not drawn) [Compound C31] the “mitochondrial membrane potential (JC-1 staining)” value (MCF7 cells [1]; MCF7, standard conditions, FIGS. 6, 7) was “rapid and profound effect on altering mitochondrial membrane potential”, the “mitochondrial membrane polarization (JC-1 staining)” value (MCF7 cells [1]; MCF7, varying glucose and oxygen, FIG. 11) was “reductions in mitochondrial membrane polarization” and the CC50 [2] was 6 to 8.1 µg/mL (≈ 14.6 to 19.8 µM). The IC50 (MCF7 cells [3]; first experiment, FIG. 1) was 17 µg/mL, the IC50 (MCF7 cells [3]; second experiment) was 13.6 µM and the “inhibition of FAS activity (14C-acetate incorporation)” value (MCF7 cells [3]; MCF7, 1 mM or 5 mM glucose, 21% or 1% O2, FIG. 14) was “increasingly effective at inhibiting FAS activity”. The “mitochondrial depolarization (JC-1 staining)” value [4] was “depolarization of the mitochondria in the SKOV3 human ovarian cancer cells which is dose-dependent”, the CC50 (Human hepatoma cell line) was 5 µg/mL (≈ 12.2 µM) and the CC50 [5] was 225 µg/mL and 562 µM. For the same compound, the “Average Tumor Size Endpoint (% Change)” value ([6]; Study 72406, HCT-116, IP b.i.d. 8 days) was −59 % Change, the “Average Tumor Size Endpoint (% Change)” value ([6]; Study 101707, HCT-116, oral b.i.d. 16 days) was “+256 % Change” and the CC50 [7] was 4 µg/mL (≈ 9.76 µM).

From patent US20140243401A1, “METHODS OF SCREENING COMPOUNDS THAT ARE CYTOTOXIC TO TUMOR CELLS AND METHODS OF TREATING TUMOR CELLS USING SUCH COMPOUND” (The Johns Hopkins University, priority 2010, published 2014)
